ChEMBL document CHEMBL1155731, “Montipyridine, a new pyridinium alkaloid from the stony coral montipora species” (2001)

Legend:
Format in all cases: functional
Settings in all cases: read-out: ED50 (the source's name)
A549 = assay: Cytotoxicity against human A549 cells
SK-OV-3 = assay: Cytotoxicity against human SKOV3 cells
SK-MEL-2 = assay: Cytotoxicity against human SK-MEL-2 cells
XF498 = assay: Cytotoxicity against human XF498 cells
HCT-15 = assay: Cytotoxicity against human HCT15 cells

Measured: EC50

C=CCCCCCCCc1cc(OC)cc[n+]1CC(=O)[O-] [MONTIPYRIDINE]
> 30 µg/mL: A549 | SK-OV-3 | SK-MEL-2 | XF498 | HCT-15
